Reference: ChEMBL document CHEMBL3351673, “Synthesis and evaluation of new indole-based chalcones as potential antiinflammatory agents” (Eur J Med Chem, 2015)
Converted amounts (≈) assume the structure as drawn.

Assays:
[1] = target: T1, Prostaglandin G/H synthase 1 (Ovis aries, UniProt P05979); test: Inhibition of ovine COX1 using arachidonic acid substrate incubated for 5 mins by colorimetry
T1 sequence (P05979 whole entry): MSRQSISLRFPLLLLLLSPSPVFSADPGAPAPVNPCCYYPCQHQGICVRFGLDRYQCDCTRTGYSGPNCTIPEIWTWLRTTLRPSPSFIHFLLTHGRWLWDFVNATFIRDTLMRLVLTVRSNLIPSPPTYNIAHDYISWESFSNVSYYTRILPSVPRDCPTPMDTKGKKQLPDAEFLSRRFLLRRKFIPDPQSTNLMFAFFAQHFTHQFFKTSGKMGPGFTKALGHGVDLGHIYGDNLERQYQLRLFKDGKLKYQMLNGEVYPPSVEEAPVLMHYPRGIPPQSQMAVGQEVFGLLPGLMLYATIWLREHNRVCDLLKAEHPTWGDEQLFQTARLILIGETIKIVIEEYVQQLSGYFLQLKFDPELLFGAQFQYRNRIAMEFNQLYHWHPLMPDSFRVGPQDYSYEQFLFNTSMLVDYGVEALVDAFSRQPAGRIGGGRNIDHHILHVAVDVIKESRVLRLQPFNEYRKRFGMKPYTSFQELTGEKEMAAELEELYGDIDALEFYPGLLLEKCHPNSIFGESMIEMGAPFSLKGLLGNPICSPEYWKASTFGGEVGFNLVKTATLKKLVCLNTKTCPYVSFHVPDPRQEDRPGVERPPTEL

[2] = Cytotoxicity against mouse NIH/3T3 cells incubated for 24 hrs by CCK8 assay; type: cell-based; details: NIH3T3, 24 h
[3] = system: Rattus norvegicus; test: Antiinflammatory activity in Sprague-Dawley rat model of LPS-induced sepsis assessed as AST level at 5 mg/kg/day dosed through gastric intubation for 6 days (reference value: 148.9 +/- 41.3 U/L); type: functional
[4] = system: Rattus norvegicus; test: Antiinflammatory activity in Sprague-Dawley rat model of LPS-induced sepsis assessed as ALT level at 5 mg/kg/day dosed through gastric intubation for 6 days (reference value: 70.3 +/- 7.9 U/L); type: functional
[5] = system: Rattus norvegicus; test: Antiinflammatory activity in Sprague-Dawley rat model of LPS-induced sepsis assessed as MPO level at 5 mg/kg/day dosed through gastric intubation for 6 days (reference value: 4.2 +/- 1.8 […]); type: functional
[6] = system: Rattus norvegicus; test: Antiinflammatory activity in Sprague-Dawley rat model of LPS-induced sepsis assessed as hsCRP level at 5 mg/kg/day dosed through gastric intubation for 6 days (reference value: 1.9 +/- 0.3 mg/L); type: functional
[7] = system: Rattus norvegicus; test: Antiinflammatory activity in Sprague-Dawley rat model of LPS-induced sepsis assessed as serum MDA level at 5 mg/kg/day dosed through gastric intubation for 6 days (reference value: 4.7 +/- 2.8 mg/L); type: functional
[8] = system: Rattus norvegicus; test: Antiinflammatory activity in Sprague-Dawley rat model of LPS-induced sepsis assessed as nitric oxide level at 5 mg/kg/day dosed through gastric intubation for 6 days by cadmium reduction method (reference value: 28.6 +/- 2.4 umol/L); type: functional

In the case of `CC(=O)Nc1ccc(C(=O)/C=C/c2cn(C)c3ccccc23)cc1`, the IC50 [1] is reported as > 31.4 µM and the IC50 [2] is reported as 96.6 µg/mL (≈ 303 µM).

In the case of `CS(=O)(=O)c1ccc(C(=O)/C=C/c2c[nH]c3ccc(Br)cc23)cc1`, the IC50 [1] is reported as > 24.7 µM and the IC50 [2] is reported as 17.3 µg/mL (≈ 42.8 µM).

In the case of `N#Cc1ccc(C(=O)/C=C/c2c[nH]c3ccc(Cl)cc23)cc1`, the IC50 [1] is reported as > 32.6 µM and the IC50 [2] is reported as 33.3 µg/mL (≈ 109 µM).

`Cn1cc(/C=C/C(=O)c2ccc(C#N)cc2)c2ccccc21` showed an IC50 [1] of 33.9 µM and an IC50 [2] of 210 µg/mL (≈ 733 µM).

For `COc1ccc2[nH]cc(/C=C/C(=O)c3ccc(C#N)cc3)c2c1`, the IC50 [1] was > 33.1 µM and the IC50 [2] was 20 µg/mL (≈ 66.2 µM).

In the case of `Cn1cc(/C=C/C(=O)c2ccc(S(C)(=O)=O)cc2)c2ccccc21`, the IC50 [1] is reported as > 29.5 µM and the IC50 [2] is reported as 350 µg/mL (≈ 1030 µM).

With `N#Cc1ccc(C(=O)/C=C/c2c[nH]c3ccc(Br)cc23)cc1` the Activity [3] was 98.8 U/L, the Activity [4] was 62.4 U/L and the Activity [5] was 0.8 U/L. It also gave an Activity [6] of 0.6 mg/L, an IC50 [1] of 23.1 µM and an IC50 [2] of 51.6 µg/mL (≈ 147 µM). For the same compound, the Activity [7] was 2.5 nmol/mL and the Activity [8] was 26.2 µmol/L.

For `CS(=O)(=O)c1ccc(C(=O)/C=C/c2c[nH]c3ccc(Cl)cc23)cc1`, the IC50 [1] was > 27.8 µM and the IC50 [2] was 21 µg/mL (≈ 58.4 µM).

With `COc1ccc2[nH]cc(/C=C/C(=O)c3ccc(S(C)(=O)=O)cc3)c2c1` the Activity [3] was 93.8 U/L, the Activity [4] was 60.9 U/L and the Activity [5] was 0.6 U/L. The Activity [6] was 1 mg/L, the IC50 [1] was 24.2 µM and the IC50 [2] was 32.3 µg/mL (≈ 90.9 µM). For the same compound, the Activity [7] was 2.6 nmol/mL and the Activity [8] was 25.6 µmol/L.

With `COc1ccc2c(c1)c(CC(=O)O)c(C)n2C(=O)c1ccc(Cl)cc1` [INDOMETHACIN] the Activity [3] was 92.5 U/L, the Activity [4] was 67.6 U/L and the Activity [5] was 0.6 U/L. It also gave an Activity [6] of 1.1 mg/L, an Activity [7] of 2.7 nmol/mL and an Activity [8] of 26.2 µmol/L.
